These results are taken from ChEMBL document CHEMBL3046603, “Synthesis and antibacterial, antifungal activities of some 2r,4c-diaryl-3-azabicyclo[3.3.1]nonan-9-one-4-aminobenzoyl hydrazones” (2012).

Values after ≈ are worked out from the molar mass of the structure shown. Active and inactive are the calls of the source. The rule behind the calls is not given here.

The subject of one experiment is Aspergillus flavus. Description: Antifungal activity against Aspergillus flavus after 72 to 96 hr by two-fold serial dilution method. In kind it is functional.
The next experiment deals with Salmonella typhi. Description: Antibacterial activity against Salmonella enterica subsp. enterica serovar Typhi MTCC 531 after 24 hr two-fold serial dilution method. The class given is functional. Conditions: MTCC 531, 24 h.
Experiment [1] has as its system Cryptococcus neoformans. Description: Antifungal activity against Cryptococcus neoformans after 72 to 96 hr by two-fold serial dilution method. In kind it is functional.
The subject of a further experiment is Vibrio cholerae. Description: Antibacterial activity against Vibrio cholerae after 24 hr two-fold serial dilution method. In kind it is functional.
The next experiment deals with Bacillus subtilis. Description: Antibacterial activity against Bacillus subtilis MTCC 121 after 24 hr two-fold serial dilution method. The conditions noted are these: MTCC 121, 24 h. In kind it is functional.
The subject of another experiment is Salmonella typhimurium. Description: Antibacterial activity against Salmonella enterica subsp. enterica serovar Typhimurium MTCC 98 after 24 hr two-fold serial dilution method. The class given is functional. Conditions: MTCC 98, 24 h.
The test system of another experiment is Candida albicans. Description: Antifungal activity against Candida albicans two-fold serial dilution method. The class given is functional.
Another experiment concerns Klebsiella pneumoniae. Description: Antibacterial activity against Klebsiella pneumoniae MTCC 2272 after 24 hr two-fold serial dilution method. The class given is functional. The conditions noted are these: MTCC 2272, 24 h.
A further experiment has as its system Aspergillus niger. Description: Antifungal activity against Aspergillus niger after 72 to 96 hr by two-fold serial dilution method. In kind it is functional.
The next experiment has as its system Escherichia coli. Description: Antibacterial activity against Escherichia coli MTCC 443 after 24 hr two-fold serial dilution method. In kind it is functional. Conditions: MTCC 443, 24 h.
In the next experiment the test system is Fusarium oxysporum. Description: Antifungal activity against Fusarium oxysporum after 72 to 96 hr by two-fold serial dilution method. The class given is functional.
In the next experiment the test system is Pseudomonas aeruginosa. Description: Antibacterial activity against Pseudomonas aeruginosa MTCC 741 after 24 hr two-fold serial dilution method. In kind it is functional. The conditions noted are these: MTCC 741, 24 h.
The test system of the next experiment is Staphylococcus aureus. Description: Antibacterial activity against Staphylococcus aureus MTCC 96 after 24 hr two-fold serial dilution method. The class given is functional. The conditions noted are these: MTCC 96, 24 h.
Experiment [2] concerns Cryptococcus neoformans. Description: Antifungal activity against Cryptococcus neoformans at 200 ug/ml after 72 to 96 hr by two-fold serial dilution method. The class given is functional, organism-based.

As to `Nc1ccc(C(=O)NN=C2C3CCCC2C(c2ccc(F)cc2)NC3c2ccc(F)cc2)cc1` (configuration not stated), the MIC with Aspergillus flavus came out at 200 µg/mL (≈ 434 µM); against Salmonella typhi it was 100 µg/mL (≈ 217 µM); in the experiment with Cryptococcus neoformans [1] it was 200 µg/mL (≈ 434 µM); against Vibrio cholerae, 50 µg/mL (≈ 109 µM); with Bacillus subtilis, 25 µg/mL (≈ 54.3 µM); in the experiment on Salmonella typhimurium it was 100 µg/mL (≈ 217 µM). In addition, the MIC came out at 100 µg/mL (≈ 217 µM) against Candida albicans; 50 µg/mL (≈ 109 µM) in the experiment with Klebsiella pneumoniae; 100 µg/mL (≈ 217 µM) against Aspergillus niger; 100 µg/mL (≈ 217 µM) in the experiment with Escherichia coli; 50 µg/mL (≈ 109 µM) with Fusarium oxysporum; 200 µg/mL (≈ 434 µM) in the experiment on Pseudomonas aeruginosa. Also, it took 50 µg/mL (≈ 109 µM) to inhibit growth against Staphylococcus aureus (MIC).
Turning to `COc1ccc(C2NC(c3ccc(OC)cc3)C3CCCC2C3=NNC(=O)c2ccc(N)cc2)cc1` (configuration not stated), the MIC against Aspergillus flavus stood at 50 µg/mL (≈ 103 µM); with Salmonella typhi, 100 µg/mL (≈ 206 µM); in the experiment with Cryptococcus neoformans [1] it was 200 µg/mL (≈ 413 µM); against Vibrio cholerae it was 50 µg/mL (≈ 103 µM); in the experiment on Bacillus subtilis it was 100 µg/mL (≈ 206 µM); with Salmonella typhimurium, 200 µg/mL (≈ 413 µM). Further, the MIC stood at 200 µg/mL (≈ 413 µM) with Candida albicans; 200 µg/mL (≈ 413 µM) against Klebsiella pneumoniae; 100 µg/mL (≈ 206 µM) against Aspergillus niger; 100 µg/mL (≈ 206 µM) against Escherichia coli; 100 µg/mL (≈ 206 µM) against Fusarium oxysporum; 200 µg/mL (≈ 413 µM) with Pseudomonas aeruginosa. This compound had an MIC against Staphylococcus aureus of 100 µg/mL (≈ 206 µM).
With `Nc1ccc(C(=O)NN=C2C3CCCC2C(c2ccccc2)NC3c2ccccc2)cc1` (configuration not stated), the MIC was 200 µg/mL (≈ 471 µM) in the experiment on Aspergillus flavus; 200 µg/mL (≈ 471 µM) in the experiment with Salmonella typhi; 100 µg/mL (≈ 236 µM) with Vibrio cholerae; 100 µg/mL (≈ 236 µM) with Bacillus subtilis; 200 µg/mL (≈ 471 µM) against Salmonella typhimurium; 50 µg/mL (≈ 118 µM) in the experiment on Klebsiella pneumoniae. Besides, the minimal inhibitory concentration (MIC) in the experiment on Escherichia coli, in the experiment with Fusarium oxysporum, in the experiment with Pseudomonas aeruginosa and in the experiment on Staphylococcus aureus was 200 µg/mL (≈ 471 µM) in each case. The result in the experiment with Cryptococcus neoformans [2] was inactive.
Regarding `Nc1ccc(C(=O)NN=C2C3CCCC2C(c2ccccc2Cl)NC3c2ccccc2Cl)cc1` (configuration not stated), the MIC with Aspergillus flavus stood at 200 µg/mL (≈ 405 µM); in the experiment with Salmonella typhi it was 100 µg/mL (≈ 203 µM); in the experiment on Cryptococcus neoformans [1], 100 µg/mL (≈ 203 µM); with Vibrio cholerae, 50 µg/mL (≈ 101 µM); with Bacillus subtilis, 200 µg/mL (≈ 405 µM); with Salmonella typhimurium, 50 µg/mL (≈ 101 µM). The MIC amounted to 200 µg/mL (≈ 405 µM) against Candida albicans; 50 µg/mL (≈ 101 µM) in the experiment on Klebsiella pneumoniae; 100 µg/mL (≈ 203 µM) in the experiment on Aspergillus niger; 100 µg/mL (≈ 203 µM) with Escherichia coli; 100 µg/mL (≈ 203 µM) with Fusarium oxysporum; 100 µg/mL (≈ 203 µM) against Pseudomonas aeruginosa. In the experiment on Staphylococcus aureus, this compound registered an MIC of 200 µg/mL (≈ 405 µM).
As for `Nc1ccc(C(=O)NN=C2C3CCCC2C(c2ccc(Cl)cc2)NC3c2ccc(Cl)cc2)cc1` (configuration not stated), the minimum inhibitory concentration (MIC) came to 100 µg/mL (≈ 203 µM) against Aspergillus flavus; 200 µg/mL (≈ 405 µM) against Salmonella typhi; 200 µg/mL (≈ 405 µM) with Cryptococcus neoformans [1]; 100 µg/mL (≈ 203 µM) with Vibrio cholerae; 50 µg/mL (≈ 101 µM) against Bacillus subtilis; 200 µg/mL (≈ 405 µM) in the experiment on Salmonella typhimurium. Moreover, the MIC with Candida albicans came out at 100 µg/mL (≈ 203 µM); in the experiment with Klebsiella pneumoniae it was 200 µg/mL (≈ 405 µM); in the experiment with Aspergillus niger, 50 µg/mL (≈ 101 µM); in the experiment with Escherichia coli, 50 µg/mL (≈ 101 µM); with Fusarium oxysporum it was 200 µg/mL (≈ 405 µM); with Pseudomonas aeruginosa it was 100 µg/mL (≈ 203 µM). The MIC in the experiment with Staphylococcus aureus is 50 µg/mL (≈ 101 µM).
Take `C[C@@H]1[C@H](O)[C@@H](C)/C=C/C=C/C=C/C=C/C=C/C=C/C=C/[C@H](O[C@@H]2O[C@H](C)[C@@H](O)[C@H](N)[C@@H]2O)C[C@@H]2O[C@](O)(C[C@@H](O)C[C@@H](O)[C@H](O)CC[C@@H](O)C[C@@H](O)CC(=O)O[C@H]1C)C[C@H](O)[C@H]2C(=O)O` [AMPHOTERICIN B]: the minimum inhibitory concentration (MIC) against Aspergillus flavus was determined as 50 µg/mL (≈ 54.1 µM); in the experiment on Cryptococcus neoformans [1], 25 µg/mL (≈ 27.1 µM); with Candida albicans, 25 µg/mL (≈ 27.1 µM); against Aspergillus niger it was 50 µg/mL (≈ 54.1 µM); with Fusarium oxysporum, 25 µg/mL (≈ 27.1 µM).
Consider `Nc1ccc(C(=O)NN=C2C3CCCC2C(c2ccc(Br)cc2)NC3c2ccc(Br)cc2)cc1` (configuration not stated), for which the minimum inhibitory concentration (MIC) against Aspergillus flavus came out at 100 µg/mL (≈ 172 µM); with Salmonella typhi, 50 µg/mL (≈ 85.9 µM); against Cryptococcus neoformans [1] it was 100 µg/mL (≈ 172 µM); in the experiment with Vibrio cholerae, 200 µg/mL (≈ 343 µM); against Bacillus subtilis, 200 µg/mL (≈ 343 µM); against Salmonella typhimurium, 200 µg/mL (≈ 343 µM). In addition, the MIC in the experiment on Candida albicans was found to be 200 µg/mL (≈ 343 µM); against Klebsiella pneumoniae, 200 µg/mL (≈ 343 µM); in the experiment with Aspergillus niger, 50 µg/mL (≈ 85.9 µM); with Escherichia coli, 100 µg/mL (≈ 172 µM); in the experiment on Fusarium oxysporum, 100 µg/mL (≈ 172 µM); against Pseudomonas aeruginosa it was 50 µg/mL (≈ 85.9 µM). In addition, the MIC against Staphylococcus aureus amounted to 50 µg/mL (≈ 85.9 µM).
For the compound `Cc1ccc(C2NC(c3ccc(C)cc3)C3CCCC2C3=NNC(=O)c2ccc(N)cc2)cc1` (configuration not stated), the MIC against Aspergillus flavus came out at 200 µg/mL (≈ 442 µM); against Salmonella typhi, 100 µg/mL (≈ 221 µM); with Cryptococcus neoformans [1] it was 100 µg/mL (≈ 221 µM); in the experiment on Vibrio cholerae, 200 µg/mL (≈ 442 µM); against Bacillus subtilis it was 100 µg/mL (≈ 221 µM); in the experiment on Salmonella typhimurium, 200 µg/mL (≈ 442 µM). Further, the MIC is 200 µg/mL (≈ 442 µM) in the experiment on Candida albicans; 200 µg/mL (≈ 442 µM) against Klebsiella pneumoniae; 100 µg/mL (≈ 221 µM) in the experiment on Aspergillus niger; 100 µg/mL (≈ 221 µM) with Escherichia coli; 100 µg/mL (≈ 221 µM) in the experiment on Fusarium oxysporum; 200 µg/mL (≈ 442 µM) in the experiment on Pseudomonas aeruginosa. In the experiment with Staphylococcus aureus, this compound registered an MIC of 200 µg/mL (≈ 442 µM).
`CN[C@@H]1[C@H](O[C@H]2[C@H](O[C@H]3[C@H](O)[C@@H](O)[C@H](N=C(N)N)[C@@H](O)[C@@H]3N=C(N)N)O[C@@H](C)[C@]2(O)C=O)O[C@@H](CO)[C@H](O)[C@H]1O` [STREPTOMYCIN]: the minimal inhibitory concentration (MIC) against Salmonella typhi worked out at 25 µg/mL (≈ 43 µM); against Vibrio cholerae, 50 µg/mL (≈ 86 µM); in the experiment with Bacillus subtilis, 12.5 µg/mL (≈ 21.5 µM); in the experiment with Salmonella typhimurium it was 25 µg/mL (≈ 43 µM); in the experiment on Klebsiella pneumoniae, 20 µg/mL (≈ 34.4 µM); against Escherichia coli, 50 µg/mL (≈ 86 µM). Moreover, the figures for the MIC against Pseudomonas aeruginosa and against Staphylococcus aureus were 50 µg/mL (≈ 86 µM) and 25 µg/mL (≈ 43 µM), respectively.

One may read the MIC as the lowest concentration found to suppress growth. A lower MIC goes with inhibition by little substance.
